Experimental data published in US20200261440A1, “ZINC IONOPHORES AND USES THEREOF” (THE UNIVERSITY OF QUEENSLAND, priority 2017, published 2020).
Converted amounts (≈) assume the structure as drawn. “Also recorded” adds a separate entry of the source. Read-outs that look alike come from different tables or passages of the source.

Assays:
[1] = tested on: Vancomycin-resistant Enterococci (VRE) clinical isolate RBWH1; experiment: MIC by broth microdilution (CLSI); assay type: cell-based, Enterococcus; conditions: Enterococcus, VRE, read-out: MIC
Experimental: (§1) J. Path. Bact. […] Proc. Soc.
(§2) MIC assays were carried out in biological triplicates.
(§3) M100 Performance Standards for Antimicrobial Susceptibility Testing, 27th Edition.

[2] = tested on: Methicillin-resistant Staphylococcus aureus (MRSA) strain USA300; experiment: MIC by broth microdilution (CLSI); conditions: for antibiotic sensitivity of resistant strain: addition of sub-inhibitory PBT2+zinc(II) ions; for MIC: Staphylococcus aureus
Experimental: GAS HKU16, MRSA USA300, VRE RBWH1, Klebsiella pneumoniae strain MS6771, E. coli strain MS8345 and Streptococcus pneumoniae strain 23F were grown in Todd-Hewitt broth (THB) or agar with 1% yeast extract (THY) [Todd, E. W. & Hewitt, L. F. A new culture medium for the production of antigenic streptococcal haemolysin. […] Bacteria were routinely grown at 37° C. in ambient air.
MICs were determined by broth microdilution in accordance to CLSI guidelines (“Methods for Dilution Antimicrobial Susceptibility Tests for Bacteria That Grow Aerobically”, Clinical and Laboratory Standards Institute) [Clinical and Laboratory Standards Institute. […] For MRSA, VRE, Klebsiella pneumoniae and E. coli the assays were performed in MHB, and for GAS and Streptococcus pneumoniae MHB+2.5% lysed horse blood (LHB) was used. The bacterial inoculum was prepared by direct colony suspension aiming for 2-8×10^5 colony forming units (CFU)/mL bacteria per well. Antibiotics/compounds were serially diluted two-fold across the 96-well plate, the last column contained no antibiotics/compounds. The inoculum was added to the plate containing antibiotic/compound and incubated for 16-24 h at 35+/−2° C. […] MIC assays were carried out in biological triplicates.
Using Clinical and Laboratory Standards Institute guidelines for antimicrobial sensitivity testing [Clinical and Laboratory Standards Institute.

[3] = tested on: Klebsiella pneumoniae strain MS6771; experiment: MIC by broth microdilution (CLSI); assay type: cell-based; conditions: Klebsiella pneumoniae, read-out: MIC
[4] = tested on: Streptococcus pneumoniae 23F; experiment: MIC by broth microdilution (CLSI); assay type: cell-based
[5] = tested on: GAS strain HKU16 (Streptococcus pyogenes strain HKU16); experiment: microbe, parasite or virus in culture; assay type: cell-based; conditions: GAS
Experimental: as §1, §2, §3

[6] = MRSA USA300, CQ: 0 μM, Zinc: 0 μM
[7] = MRSA USA300, CQ: 1 μM, Zinc: 32 μM
[8] = MRSA USA300, PBT2: 0 μM, Zinc: 0 μM
[9] = MRSA USA300, PBT2: 2 μM, Zinc: 50 μM
[10] = MRSA|USA300, MRSA, RA-HQ-12: 0 μM, Zn: 0 μM, oxacillin with 2% NaCl
[11] = MRSA|USA300, MRSA, RA-HQ-12: 3.5 μM, Zn: […], oxacillin with 2% NaCl
[12] = MRSA|USA300, MRSA, RA-HQ-12: 3.5 μM, oxacillin with 2% NaCl
[13] = MS6771, K. pneumoniae, RA-HQ-12: 0 μM, Zn: 0 μM
[14] = MS6771, K. pneumoniae, RA-HQ-12: 16 μM, Zn: 64 μM
[15] = MS6771, K. pneumoniae, RA-HQ-12: 16 μM
[16] = MS6771, K. pneumoniae, Zn: 64 μM
[17] = MS6771, Klebsiella pneumoniae, CQ: 0 μM, Zinc: 0 μM
[18] = MS6771, Klebsiella pneumoniae, CQ: 64 μM, Zinc: 256 μM
[19] = MS6771, Klebsiella pneumoniae, CQ: 64 μM
[20] = MS6771, Klebsiella pneumoniae, PBT2: 0 μM, Zinc: 0 μM
[21] = MS6771, Klebsiella pneumoniae, PBT2: 64 μM, Zinc: 256 μM
[22] = MS6771, Klebsiella pneumoniae, PBT2: 64 μM
[23] = MS6771, Klebsiella pneumoniae, Zinc: 256 μM (CQ panel)
[24] = MS6771, Klebsiella pneumoniae, Zinc: 256 μM (PBT2 panel)
[25] = Streptococcus pneumoniae, 23F, PBT2: 0 μM, Zinc: 0 μM, read-out: MIC
[26] = Streptococcus pneumoniae, 23F, PBT2: 8 μM, Zinc: 32 μM, read-out: MIC
[27] = Streptococcus pneumoniae, 23F, PBT2: 8 μM, read-out: MIC
[28] = Streptococcus pneumoniae, 23F, Zinc: 32 μM, read-out: MIC
[29] = MRSA|USA300, MRSA USA300, CQ: 0.75 μM, Zinc: 16 μM, +2% NaCl
[30] = MRSA|USA300, MRSA USA300, PBT2: 2 μM, Zinc: 25 μM, +2% NaCl

Compound	antibiotic sensitivity of resistant strain ([2]; MRSA USA300)	MIC [2, 12] [mg/L]	MIC [3, 13] [mg/L]	MIC [3, 14] [mg/L]	MIC [3, 15] [mg/L]	MIC [3, 16] [mg/L]	MIC [3, 17] [mg/L]	MIC [3, 18] [mg/L]	MIC [3, 19] [mg/L]	MIC [3, 20] [mg/L]	MIC [3, 21] [mg/L]	MIC [3, 22] [mg/L]	MIC [3, 23] [mg/L]	MIC [3, 24] [mg/L]	MIC [4, 25] [mg/L]	MIC [4, 26] [mg/L]	MIC [4, 27] [mg/L]	MIC [4, 28] [mg/L]	other results
CC1(C)S[C@@H]2[C@H](NC(=O)[C@H](N)c3ccccc3)C(=O)N2[C@H]1C(=O)O [Ampicillin, ampicillin]	became sensitive	> 128	> 128	> 128	> 128	> 128	> 128	> 128	> 128	> 128	> 128	> 128	> 128	> 128	8 (≈ 22.9 µM)	1 (≈ 2.86 µM)	8 (≈ 22.9 µM)	8 (≈ 22.9 µM)	MIC ([1]; RA-HQ-12: 3.5 μM, Zn: […]): > 128 mg/L; MIC ([1]; RA-HQ-12: 3.5 μM): > 128 mg/L; MIC ([1]; Zn: […] (RA-HQ-12 panel)): > 128 mg/L; MIC ([1]; RA-HQ-12: 0 μM, Zn: 0 μM): > 128 mg/L; MIC [2, 6]: > 128 mg/L; MIC ([2]; MRSA USA300, CQ: 1 μM): > 128 mg/L; MIC [2, 7]: 1 mg/L (≈ 2.86 µM); MIC [2, 8]: > 128 mg/L; MIC ([2]; MRSA USA300, PBT2: 2 μM): > 128 mg/L; MIC [2, 9]: 2 mg/L (≈ 5.72 µM); MIC ([2]; MRSA USA300, Zinc: 32 μM): > 128 mg/L; MIC ([2]; MRSA USA300, Zinc: 50 μM): > 128 mg/L; MIC [2, 10]: > 128 mg/L; MIC [2, 11]: > 128 mg/L
CC[C@H]1OC(=O)[C@H](C)[C@@H](O[C@H]2C[C@@](C)(OC)[C@@H](O)[C@H](C)O2)[C@H](C)[C@@H](O[C@@H]2O[C@H](C)C[C@H](N(C)C)[C@H]2O)[C@](C)(O)C[C@@H](C)CN(C)[C@H](C)[C@@H](O)[C@]1(C)O [Azithromycin, azithromycin]	–	64 (≈ 85.4 µM)	32 (≈ 42.7 µM)	32 (≈ 42.7 µM)	32 (≈ 42.7 µM)	32 (≈ 42.7 µM)	–	–	–	–	–	–	–	–	–	–	–	–	MIC ([1]; RA-HQ-12: 3.5 μM, Zn: […]): > 128 mg/L; MIC ([1]; RA-HQ-12: 3.5 μM): > 128 mg/L; MIC ([1]; Zn: […] (RA-HQ-12 panel)): > 128 mg/L; MIC ([1]; RA-HQ-12: 0 μM, Zn: 0 μM): > 128 mg/L; MIC [2]: 128 mg/L (≈ 171 µM); MIC [2, 11]: 32 mg/L (≈ 42.7 µM); MIC ([5]; Streptococcus pyogenes, RA-HQ-12: 0 μM, Zn: 0 μM, read-out: MIC): > 128 mg/L
O=C(N[C@H](CO)[C@H](O)c1ccc([N+](=O)[O-])cc1)C(Cl)Cl [Chloramphenicol, chloramphenicol]	–	–	–	–	–	–	128 (≈ 396 µM)	64 (≈ 198 µM)	64 (≈ 198 µM)	128 (≈ 396 µM)	128 (≈ 396 µM)	128 (≈ 396 µM)	128 (≈ 396 µM)	128 (≈ 396 µM)	16 (≈ 49.5 µM)	2 (≈ 6.19 µM)	16 (≈ 49.5 µM)	16 (≈ 49.5 µM)	antibiotic sensitivity of resistant strain ([4]; addition of sub-inhibitory PBT2+zinc(II) ions): became sensitive
CC[C@H]1OC(=O)[C@H](C)[C@@H](O[C@H]2C[C@@](C)(OC)[C@@H](O)[C@H](C)O2)[C@H](C)[C@@H](O[C@@H]2O[C@H](C)C[C@H](N(C)C)[C@H]2O)[C@](C)(O)C[C@@H](C)C(=O)[C@H](C)[C@@H](O)[C@]1(C)O [Erythromycin, erythromycin]	became sensitive; also recorded: reversed	64 (≈ 87.2 µM)	–	–	–	–	–	–	–	–	–	–	–	–	–	–	–	–	MIC [2, 6]: 64 mg/L (≈ 87.2 µM); MIC ([2]; MRSA USA300, CQ: 1 μM): 64 mg/L (≈ 87.2 µM); MIC [2, 7]: 1 mg/L (≈ 1.36 µM); MIC [2, 8]: 64 mg/L (≈ 87.2 µM); MIC ([2]; MRSA USA300, PBT2: 2 μM): 32 mg/L (≈ 43.6 µM); MIC [2, 9]: 0.5 mg/L (≈ 0.681 µM); MIC ([2]; MRSA USA300, Zinc: 32 μM): 64 mg/L (≈ 87.2 µM); MIC ([2]; MRSA USA300, Zinc: 50 μM): 64 mg/L (≈ 87.2 µM)
COc1cccc(OC)c1C(=O)N[C@@H]1C(=O)N2[C@@H]1SC(C)(C)[C@@H]2C(=O)O [Methicillin, methicillin]	–	–	–	–	–	–	–	–	–	–	–	–	–	–	–	–	–	–	MIC ([2]; MRSA USA300, CQ: 0 μM, Zinc: 0 μM, +2% NaCl): > 128 mg/L; MIC ([2]; MRSA USA300, CQ: 0.75 μM, +2% NaCl): > 128 mg/L; MIC ([2]; MRSA USA300, PBT2: 2 μM, +2% NaCl): > 128 mg/L; MIC ([2]; MRSA USA300, Zinc: 16 μM, +2% NaCl): > 128 mg/L; MIC ([2]; MRSA USA300, Zinc: 25 μM, +2% NaCl): > 128 mg/L; MIC [2, 29]: > 128 mg/L; MIC ([2]; MRSA|USA300, MRSA USA300, PBT2: 0 μM, Zinc: 0 μM, +2% NaCl): > 128 mg/L; MIC [2, 30]: > 128 mg/L
Cc1onc(-c2ccccc2)c1C(=O)N[C@@H]1C(=O)N2[C@@H]1SC(C)(C)[C@@H]2C(=O)O [Oxacillin, oxacillin]	became sensitive	–	–	–	–	–	–	–	–	–	–	–	–	–	–	–	–	–	MIC [2, 29]: 0.5 to 1 mg/L (≈ 1.25 to 2.49 µM); MIC [2, 30]: 1 to 2 mg/L (≈ 2.49 to 4.98 µM); MIC ([5]; RA-HQ-12: 3.5 μM): 0.125 mg/L (≈ 0.311 µM)
CN(C)[C@@H]1C(O)=C(C(N)=O)C(=O)[C@@]2(O)C(O)=C3C(=O)c4c(O)cccc4[C@@](C)(O)[C@H]3C[C@@H]12 [Tetracycline, tetracycline]	–	–	32 (≈ 72 µM)	32 (≈ 72 µM)	32 (≈ 72 µM)	32 (≈ 72 µM)	32 to 64 (≈ 72 to 144 µM)	4 to 8 (≈ 9 to 18 µM)	16 (≈ 36 µM)	16 to 32 (≈ 36 to 72 µM)	4 (≈ 9 µM)	8 (≈ 18 µM)	8 (≈ 18 µM)	8 (≈ 18 µM)	32 (≈ 72 µM)	1 (≈ 2.25 µM)	32 (≈ 72 µM)	32 (≈ 72 µM)	MIC ([1]; VRE RBWH1, CQ: 2.5 μM, Zinc: 32 μM): 1 to 2 mg/L (≈ 2.25 to 4.5 µM); MIC [2, 10]: 0.5 mg/L (≈ 1.13 µM)
gentamicin	–	–	–	–	–	–	–	–	–	–	–	–	–	–	–	–	–	–	MIC ([4]; PBT2: 0 μM, Zinc: 0 μM): 64 mg/L; MIC ([4]; PBT2: 8 μM): 4 mg/L; MIC ([4]; PBT2: 8 μM, Zinc: 32 μM): 1 mg/L; MIC ([4]; Zinc: 32 μM): 64 mg/L
